Target: T1, microsomal triglyceride transfer protein (MTP) (Mesocricetus auratus, UniProt P55158)
T1 construct: The supernatant comprising the soluble MTP is dialysed against Tris/HCl 150 mM; from tissue; host or cells: golden hamster liver microsomes, deoxycholate-solubilised supernatant, dialysed
T1 sequence (P55158 19-895): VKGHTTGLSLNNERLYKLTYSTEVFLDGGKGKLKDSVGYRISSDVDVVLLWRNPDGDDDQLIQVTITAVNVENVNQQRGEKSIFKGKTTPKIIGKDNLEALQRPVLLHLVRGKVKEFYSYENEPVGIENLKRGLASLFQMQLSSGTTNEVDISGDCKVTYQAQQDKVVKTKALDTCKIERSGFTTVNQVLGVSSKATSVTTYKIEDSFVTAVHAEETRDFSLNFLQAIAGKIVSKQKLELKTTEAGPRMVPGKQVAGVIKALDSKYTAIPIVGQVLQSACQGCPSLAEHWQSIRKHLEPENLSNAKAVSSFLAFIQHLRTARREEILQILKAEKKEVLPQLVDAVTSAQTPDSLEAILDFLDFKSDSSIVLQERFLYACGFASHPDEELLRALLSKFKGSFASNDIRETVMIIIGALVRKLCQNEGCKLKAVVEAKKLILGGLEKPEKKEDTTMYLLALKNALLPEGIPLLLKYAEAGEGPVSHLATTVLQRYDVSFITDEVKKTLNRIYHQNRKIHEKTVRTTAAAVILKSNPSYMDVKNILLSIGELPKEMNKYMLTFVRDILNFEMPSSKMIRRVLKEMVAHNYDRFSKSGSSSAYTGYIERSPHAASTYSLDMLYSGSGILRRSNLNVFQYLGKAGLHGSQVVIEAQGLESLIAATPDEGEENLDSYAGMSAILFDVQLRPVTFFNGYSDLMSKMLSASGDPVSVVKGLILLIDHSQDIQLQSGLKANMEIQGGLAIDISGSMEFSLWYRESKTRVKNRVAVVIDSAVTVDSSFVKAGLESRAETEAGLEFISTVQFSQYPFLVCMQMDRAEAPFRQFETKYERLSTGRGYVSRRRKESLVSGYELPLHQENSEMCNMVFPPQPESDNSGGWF
Assay: Inhibition of MTP activity: transfer of [3H]-triolein from donor liposomes to biotinylated LDL, SPA
Format: biochemical
Settings: MTP from golden hamster liver; incubation 18-24 hours at 37° C.; read-out: IC50, concentration that allows a 50% inhibition of MTP
Description: Analysis of the Inhibition of MTP Activity
The inhibition of the activity of microsomal triglyceride transfer protein (MTP) was tested by using the following operating protocol.
The inhibition of MTP activity with a compound can be quantified by observing the inhibition of the transfer of a labelled triglyceride, from a donor particle to an acceptor particle, in the presence of MTP. The procedure for the preparation of MTP is based on the method by Wetterau and Zilversmit (Biochem. Biophys. Acta (1986) 875, 610). A few grams of golden hamster liver are taken and then rinsed several times in a 250 mM sucrose solution at 0° C. All the following steps proceed at +4° C. A homogenate at a concentration of 50% in 250 mM sucrose is prepared using a Teflon mill and then centrifuged for 10 minutes at 10 000×g at +4° C. The supernatant is then centrifuged at 105 000×g for 75 minutes at +4° C. The supernatant is discarded and the microsomal pellet is taken up in 3 ml (per g of starting liver) of Tris/HCl 150 mM pH 8.0. 1-ml aliquot fractions are stored at −80° C. until the time of use.
After thawing a fraction of microsomes (1 ml), 12 ml of refrigerated Tris/HCl 50 mM, KCl 50 mM, MgCl2 5 mM pH 7.4 buffers and 1.2 ml of deoxycholate (0.54% in water) are added. After incubation for 30 minutes at +4° C. with gentle agitation, the suspension is centrifuged at 105 000×g for 75 minutes. The supernatant comprising the soluble MTP is dialysed against Tris/HCl 150 mM, NaCl 40 mM, EDTA 1 mM, 0.02% sodium azide pH 7.4 buffer (5 times one litre over 2-3 days). The MTP is stored at +4° C., is stable for at least 30 days and is used in unmodified form in the test.
The donor particles (liposomes) are prepared from 208 μl of L-phosphatidylcholine at a concentration of 10 mg/ml in chloroform, and 480 μl of [3H]-triolein at a concentration of 0.5 mCi/ml in toluene. After stirring, the solution is evaporated under nitrogen, taken up in 6 ml of Tris/HCl 50 mM, KCl 50 mM, MgCl2 5 mM pH 7.4 buffer and incubated in an ultrasound bath for 30 minutes at room temperature. The liposomes are stored at +4° C. and sonicated again for 10 minutes before each use.
The acceptor particles are biotinylated low density lipoproteins (LDL-biot). These particles are supplied by the company Amersham.
The reaction mixture is prepared in untreated ½ well white plates (Corning Costar) by addition, in the following order, of: 5 μl of HEPES 50 mM, NaCl 150 mM, BSA 0.1% (w/v), 0.05% sodium azide (w/v), pH 7.4 buffer; 5 μl of liposome; 5 μl of LDL-biot; 5 μl of test products in DMSO; 5 μl of MTP. After incubation for 18-24 hours at 37° C., the reaction is stopped by adding 100 μl of Amersham SPA (Scintillation Proximity Assay) beads coupled to streptavidin, and the radioactivity is counted using a Top Count (Packard) machine at least one hour later. The inhibition of the transfer of the triglycerides with a compound is reflected by a reduction in the transferred radioactivity.
The results are expressed in terms of the IC50, i.e. the concentration that allows a 50% inhibition of MTP.

Compound	IC50
Cc1cccc(C(=O)Nc2cccc(OC3CCN(C(=O)OC(C)(C)C)CC3)c2)c1-c1ccc(OC(F)(F)F)cc1 [Example 1, 1,1-dimethylethyl 4-[3-[[[6-methyl-4′-(trifluoromethoxy)[1,1′-biphenyl]-2-yl]carbonyl]amino]phenoxy]-1-piperidine-carboxylate]	421 nM
CC(=O)N1CCC(Oc2cccc(NC(=O)c3cccc(C)c3-c3ccc(OC(F)(F)F)cc3)c2)CC1 [Example 4, N-[3-[(1-acetyl-4-piperidinyl)oxy]phenyl]-6-methyl-4′-(trifluoromethoxy)[1,1′-biphenyl]-2-carboxamide]	344 nM
Cc1cccc(C(=O)Nc2cccc(OC3CCN(C(=O)Nc4ccccc4)CC3)c2)c1-c1ccc(OC(F)(F)F)cc1 [Example 11, 4-[3-[[[6-methyl-4′-(trifluoromethoxy)[1,1′-biphenyl]-2-yl]carbonyl]amino]phenoxy]-N-phenyl-1-piperidinecarboxamide]	347 nM
Cc1cccc(C(=O)Nc2cccc(OC3CCN(S(=O)(=O)c4cccnc4Cl)CC3)c2)c1-c1ccc(OC(F)(F)F)cc1 [Example 19, N-[3-[[1-[(2-chloro-3-pyridinyl)sulfonyl]-4-piperidinyl]oxy]phenyl]-6-methyl-4′-(trifluoromethoxy)[1,1′-biphenyl]-2-carboxamide]	290 nM
Cc1cccc(C(=O)Nc2cccc(OC3CCN(S(=O)(=O)c4cccc5nonc45)CC3)c2)c1-c1ccc(OC(F)(F)F)cc1 [Example 20, N-[3-[[1-(2,1,3-benzoxadiazol-4-yl-sulfonyl)-4-piperidinyl]oxy]phenyl]-6-methyl-4′-(trifluoromethoxy)[1,1′-biphenyl]-2-carboxamide]	392 nM
COc1cccc(NC(=O)N2CCC(Oc3cccc(NC(=O)c4cccc(C)c4-c4ccc(OC(F)(F)F)cc4)c3)CC2)c1 [Example 23, N-(3-methoxyphenyl)-4-[3-[[[6-methyl-4′-(trifluoromethoxy)[1,1′-biphenyl]-2-yl]-carbonyl]amino]phenoxy]-1-piperidine-carboxamide]	261 nM
Cc1cccc(C(=O)Nc2cccc(OC3CCN(C(=O)Nc4cccc(C(F)(F)F)c4)CC3)c2)c1-c1ccc(OC(F)(F)F)cc1 [Example 24, 4-[3-[[[6-methyl-4-(trifluoromethoxy)[1,1′-4-biphenyl]-2-yl]carbonyl]amino]phenoxy]-N-[3-(trifluoromethyl)phenyl]-1-piperidine-carboxamide]	459 nM
Cc1cccc(C(=O)Nc2cccc(OC3CCN(C(=O)Nc4ccc(F)cc4)CC3)c2)c1-c1ccc(OC(F)(F)F)cc1 [Example 25, N-(4-fluorophenyl)-4-[3-[[[6-methyl-4′-(trifluoromethoxy)[1,1′-biphenyl]-2-yl]-carbonyl]amino]phenoxy]-1-piperidine-carboxamide]	367 nM
CCOC(=O)c1ccc(NC(=O)N2CCC(Oc3cccc(NC(=O)c4cccc(C)c4-c4ccc(OC(F)(F)F)cc4)c3)CC2)cc1 [Example 27, ethyl 4-[[[4-[3-[[[6-methyl-4′-(trifluorometh-oxy)[1,1′-biphenyl]-2-yl]carbonyl]amino]-phenoxy]-1-piperidinyl]carbonyl]amino]-benzoate]	295 nM
Cc1cccc(C(=O)Nc2cccc(OC3CCN(C(=O)NC(C)(C)C)CC3)c2)c1-c1ccc(OC(F)(F)F)cc1 [Example 28, N-(1,1-dimethylethyl)-4-[3-[[[6-methyl-4′-(trifluoromethoxy)[1,1′-biphenyl]-2-yl]-carbonyl]amino]phenoxy]-1-piperidine-carboxamide]	232 nM
Cc1ccc(NC(=O)N2CCC(Oc3cccc(NC(=O)c4cccc(C)c4-c4ccc(OC(F)(F)F)cc4)c3)CC2)cc1 [Example 29, N-(4-methylphenyl)-4-(3-[[[6-methyl-4′-(trifluoromethoxy)[1,1′-biphenyl]-2-yl]-carbonyl]amino]phenoxy]-1-piperidine-carboxamide]	268 nM
Cc1cccc(C(=O)Nc2cccc(OC3CCN(C(=O)NC(C)C)CC3)c2)c1-c1ccc(OC(F)(F)F)cc1 [Example 30, N-(1-methylethyl)-4-[3-[[[6-methyl-4′-(trifluoromethoxy)[1,1′-biphenyl]-2-yl]-carbonyl]amino]phenoxy]-1-piperidine-carboxamide]	369 nM
CCOC(=O)CNC(=O)N1CCC(Oc2cccc(NC(=O)c3cccc(C)c3-c3ccc(OC(F)(F)F)cc3)c2)CC1 [Example 31, ethyl N-[[4-[3-[[[6-methyl-4′-(trifluorometh-oxy)[1,1′-biphenyl]-2-yl]carbonyl]amino]-phenoxy]-1-piperidinyl]carbonyl]glycinate]	82.7 nM
C=CCNC(=O)N1CCC(Oc2cccc(NC(=O)c3cccc(C)c3-c3ccc(OC(F)(F)F)cc3)c2)CC1 [Example 32, 4-[3-[[[6-methyl-4′-(trifluoromethoxy)[1,1′-biphenyl]-2-yl]carbonyl]amino]phenoxy]-N-2-propenyl-1-piperidinecarboxamide]	161 nM
CCCCNC(=O)N1CCC(Oc2cccc(NC(=O)c3cccc(C)c3-c3ccc(OC(F)(F)F)cc3)c2)CC1 [Example 33, N-butyl-4-[3-[[[6-methyl-4′-(trifluorometh-oxy)[1,1′-biphenyl]-2-yl]carbonyl]amino]-phenoxy]-1-piperidinecarboxamide]	114 nM
Cc1cccc(C(=O)Nc2cccc(OC3CCN(C(=O)NC4CCCCC4)CC3)c2)c1-c1ccc(OC(F)(F)F)cc1 [Example 34, N-cyclohexyl-4-[3-[[[6-methyl-4′-(trifluoro-methoxy)[1,1′-biphenyl]-2-yl]carbonyl]-amino]phenoxy]-1-piperidinecarboxamide]	296 nM
Cc1cccc(C(=O)Nc2cccc(OC3CCN(C(=O)NCc4ccccc4)CC3)c2)c1-c1ccc(OC(F)(F)F)cc1 [Example 35, 4-[3-[[[6-methyl-4′-(trifluoromethoxy)[1,1′-biphenyl]-2-yl]carbonyl]amino]phenoxy]-N-(phenylmethyl)-1-piperidinecarbox-amide]	120 nM
Cc1cccc(C(=O)Nc2cccc(OC3CCN(C(=O)Nc4cccc(C#N)c4)CC3)c2)c1-c1ccc(OC(F)(F)F)cc1 [Example 37, N-(3-cyanophenyl)-4-[3-[[[6-methyl-4′-(trifluoromethoxy)[1,1′-biphenyl]-2-yl]-carbonyl]amino]phenoxy]-1-piperidine-carboxamide]	65.2 nM
